Test results: ChEMBL document CHEMBL3860041, “Synthesis, biological evaluation and molecular modeling study of some new methoxylated 2-benzylthio-quinazoline-4(3H)-ones as nonclassical antifolates” (Bioorg Med Chem Lett, 2016)
In brackets after ≈: the same amount, converted by molar mass.

How the values were obtained:
Bacillus subtilis [1] = assay: Antimicrobial activity against Bacillus subtilis IFO 3007 at 200 ug/disc measured after 24 hrs by agar disc-diffusion method; format: functional; settings: IFO 3007, 24 h, read-out: DIZ
Bacillus subtilis [2] = assay: Antimicrobial activity against Bacillus subtilis IFO 3007 measured after 24 hrs by microdilution method; format: functional; settings: IFO 3007, 24 h
Pseudomonas aeruginosa = assay: Antimicrobial activity against Pseudomonas aeruginosa IFO 3448 at 200 ug/disc measured after 24 hrs by agar disc-diffusion method; format: functional; settings: IFO 3448, 24 h, read-out: DIZ
Candida albicans = assay: Antimicrobial activity against Candida albicans IFO 0583 at 200 ug/disc measured after 48 hrs by agar disc-diffusion method; format: functional; settings: IFO 0583, 48 h, read-out: DIZ
Staphylococcus aureus [3] = assay: Antimicrobial activity against Staphylococcus aureus IFO 3060 at 200 ug/disc measured after 24 hrs by agar disc-diffusion method; format: functional; settings: IFO 3060, 24 h, read-out: DIZ
Staphylococcus aureus [4] = assay: Antimicrobial activity against Staphylococcus aureus IFO 3060 measured after 24 hrs by microdilution method; format: functional; settings: IFO 3060, 24 h
Escherichia coli [5] = assay: Antimicrobial activity against Escherichia coli IFO 3301 at 200 ug/disc measured after 24 hrs by agar disc-diffusion method; format: functional; settings: IFO 3301, 24 h, read-out: DIZ
Escherichia coli [6] = assay: microbe, parasite or virus in culture; settings: IFO 3301, 24 h
Description: Antimicrobial activity against Escherichia coli IFO 3301 measured after 24 hrs by microdilution method

Row | Structure (SMILES) | zone of inhibition at 200 µg/disc (Bacillus subtilis [1]) | MIC (Bacillus subtilis [2]) | zone of inhibition at 200 µg/disc (Pseudomonas aeruginosa) | zone of inhibition at 200 µg/disc (Candida albicans) | zone of inhibition at 200 µg/disc (Staphylococcus aureus [3]) | MIC (Staphylococcus aureus [4]) | zone of inhibition at 200 µg/disc (Escherichia coli [5]) | MIC (Escherichia coli [6])
1 | COc1cc2nc(SCc3cc(OC)c(OC)c(OC)c3)n(Cc3ccccc3)c(=O)c2cc1OC | 22 mm | 4 µg/mL (≈ 7.86 µM) | 8 mm | 8 mm | 20 mm | 4 µg/mL (≈ 7.86 µM) | 16 mm | 8 µg/mL (≈ 15.7 µM)
2 | COc1cc(CSc2nc3ccc(Cl)cc3c(=O)n2-c2ccccc2)cc(OC)c1OC | 20 mm | 4 µg/mL (≈ 8.53 µM) | 8 mm | 8 mm | 17 mm | 8 µg/mL (≈ 17.1 µM) | 16 mm | 8 µg/mL (≈ 17.1 µM)
